# Measurements taken from patent US11512262B2, “Azaphenothiazines and azaphenoxazines as antioxidants” (University of Ottawa, priority 2017, dated 2022).
# Assay: hexadecane/PBD-BODIPY co-autoxidation, inhibition by antioxidant
# Conditions: hexadecane/PBD-BODIPY co-autoxidations at 70° C. in PhCl
# Procedure: FIG. 1 is a graph depicting co-autoxidation of 2.8M hexadecane and 10 μM PBD-BODIPY at 70° C. in PhCl, initiated by 87 mM tBu2O2, and inhibited by 0.6 μM 1, 2, or 9.
# Table 1. […] Relative to other antioxidants, autoxidation was inhibited poorly in the catalytic phase. Dye consumption prevented accurate determination of the stoichiometry.
Structure (SMILES),Inhibition rate constant kinh,Stoichiometry n,Turnover in the catalytic phase (footnote a to n)
"c1ccc2c(c1)Nc1ncccc1O2 [Compound 1, 1-Azaphenoxazine]",(6.8 ± 0.2) × 10^5 M^−1s^−1,50 ± 1,
"c1ccc2c(c1)Nc1ncccc1S2 [Compound 2, 1-Azaphenothiazine]",(2.8 ± 0.1) × 10^5 M^−1s^−1,10 ± 2,
"c1ccc2c(c1)Nc1ccncc1O2 [Compound 3, 3-Azaphenoxazine]",(1.3 ± 0.2) × 10^5 M^−1s^−1,183 ± 8,
"c1ccc2c(c1)Nc1ccncc1S2 [Compound 4, 3-Azaphenothiazine]",(5.9 ± 0.5) × 10^5 M^−1s^−1,46 ± 3,
"CCCCCCCc1nc(C)c2c(n1)Nc1ccccc1O2 [Compound 5, 2-Heptyl-4-methyl-1,3-Diazaphenoxazine]",(9.0 ± 0.3) × 10^5 M^−1s^−1,109 ± 4,
"CCCCCCCc1nc(C)c2c(n1)Nc1ccccc1S2 [Compound 6, 2-Heptyl-4-methyl-1,3-Diazaphenothiazine]",(3.3 ± 0.2) × 10^5 M^−1s^−1,,Inefficient turnover
"CCN(CC)c1ncc2c(n1)Nc1ccccc1S2 [Compound 7, 2-Diethylamino-1,3-Diazaphenothiazine]",(2.0 ± 0.1) × 10^5 M^−1s^−1,4 ± 0.4,
"c1ccc2c(c1)Nc1nc(N3CCCC3)ncc1S2 [Compound 8, 2-(Pyrrolidn-1-yl)-1,3-Diazaphenothiazine]",(2.6 ± 0.1) × 10^5 M^−1s^−1,6 ± 0.1,
"COc1ccc2c(n1)Sc1cccnc1N2 [Compound 9, 3-Methoxy-4,9-Diazaphenothiazine]",(5.6 ± 0.3) × 10^5 M^−1s^−1,15 ± 2,
"CCN(CC)c1ncc2c(n1)Nc1ccccc1S2 [Compound 10, 2-Diethylamino-1,3-Diazaphenothiazine]",(2.4 ± 0.4) × 10^6 M^−1s^−1,11 ± 0.7,
